Experimental data from the supplement of paper PMC10307832.

Experiments:
Assay in all cases: relative viability (nuclei count vs DMSO), 5 days (fraction); higher = more cells survive
Zosuquidar + Foretinib = compound: O[C@@H](COc1cccc2ncccc12)CN1CCN([C@@H]2c3ccccc3[C@@H]3[C@H](c4ccccc42)C3(F)F)CC1 [Zosuquidar] + COc1cc2c(Oc3ccc(NC(=O)C4(C(=O)Nc5ccc(F)cc5)CC4)cc3F)ccnc2cc1OCCCN1CCOCC1 [Foretinib] (partner 0.25 µM)
In short: (§1)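 Dosing by pin tool came one day after lung cancer cell lines were seeded in 1536-well plates, using either one drug or a fixed anchor-drug dose plus five library-drug doses (not always all listed) in √10 steps. After 5 days, nuclei were counted on 4× images. Relative viability is treated-well nuclei count divided by vehicle-well nuclei count, and values are medians of duplicate plates.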

Kobe2602 + Decitabine = compound: C1=CC(=CC=C1NC(=S)NNC2=C(C=C(C=C2[N+](=O)[O-])C(F)(F)F)[N+](=O)[O-])F [Kobe2602] + Nc1ncn([C@H]2C[C@H](O)[C@@H](CO)O2)c(=O)n1 [Decitabine] (partner 2 µM)
In short: as §1

[1] = compound: COc1cc2nccc(Oc3ccc(NC(=O)C4(C(=O)Nc5ccc(F)cc5)CC4)cc3)c2cc1OC [Cabozantinib] + Nc1ncn([C@H]2C[C@H](O)[C@@H](CO)O2)c(=O)n1 [Decitabine] (partner 2 µM)
In short: as §1

Kobe2602 + OSI-027 = compound: C1=CC(=CC=C1NC(=S)NNC2=C(C=C(C=C2[N+](=O)[O-])C(F)(F)F)[N+](=O)[O-])F [Kobe2602] + COc1cccc2cc(-c3nc([C@H]4CC[C@H](C(=O)O)CC4)n4ncnc(N)c34)[nH]c12 [OSI-027] (partner 0.5 µM)
In short: as §1

| Cell Line | relative viability (Zosuquidar + Foretinib; first compound 0.01 µM) | relative viability (Zosuquidar + Foretinib; first compound 0.03162 µM) | relative viability (Zosuquidar + Foretinib; first compound 0.1 µM) | relative viability (Zosuquidar + Foretinib; first compound 0.3162 µM) | relative viability (Zosuquidar + Foretinib; first compound 1 µM) | relative viability (Kobe2602 + Decitabine; first compound 0.2 µM) | relative viability (Kobe2602 + Decitabine; first compound 0.6325 µM) | relative viability (Kobe2602 + Decitabine; first compound 2 µM) | relative viability (Kobe2602 + Decitabine; first compound 6.325 µM) | relative viability (Kobe2602 + Decitabine; first compound 20 µM) | relative viability ([1]; first compound 0.02 µM) | relative viability ([1]; first compound 0.06325 µM) | relative viability ([1]; first compound 0.2 µM) | relative viability ([1]; first compound 0.6325 µM) | relative viability ([1]; first compound 2 µM) | relative viability (Kobe2602 + OSI-027; first compound 0.2 µM) | relative viability (Kobe2602 + OSI-027; first compound 0.6325 µM) | relative viability (Kobe2602 + OSI-027; first compound 2 µM) | relative viability (Kobe2602 + OSI-027; first compound 6.325 µM) | relative viability (Kobe2602 + OSI-027; first compound 20 µM) |
| --- | --- | --- | --- | --- | --- | --- | --- | --- | --- | --- | --- | --- | --- | --- | --- | --- | --- | --- | --- | --- |
| NCI-H322M | 0.961 | 1.19 | 0.723 | 0.983 | 0.972 | 0.707 | 0.72 | 0.693 | 0.741 | 0.718 | 0.701 | 0.719 | 0.675 | 0.798 | 0.744 | 0.573 | 0.623 | 0.544 | 0.559 | 0.557 |
| NCI-H358 | 0.654 | 0.615 | 0.719 | 0.598 | 0.702 | 0.222 | 0.219 | 0.225 | 0.177 | 0.244 | 0.226 | 0.224 | 0.214 | 0.218 | 0.233 | 0.754 | 0.872 | 0.873 | 0.672 | 0.887 |
| NCI-H441 | 1.06 | 1.01 | 0.866 | 1.03 | 1.2 | 0.224 | 0.258 | 0.224 | 0.232 | 0.27 | 0.204 | 0.24 | 0.241 | 0.273 | 0.231 | 0.616 | 0.563 | 0.536 | 0.631 | 0.783 |
| NCI-H460 | 0.922 | 0.987 | 0.987 | 0.969 | 0.952 |  | 0.486 | 0.525 | 0.472 | 0.454 | 0.509 | 0.477 | 0.724 | 0.51 | 0.486 | 0.662 | 0.722 | 0.695 | 0.629 | 0.558 |
| NCI-H520 | 0.882 | 0.849 |  | 0.619 | 0.685 | 0.543 | 0.616 | 0.563 | 0.526 | 0.48 | 0.525 | 0.602 | 0.519 | 0.547 | 0.504 | 0.281 | 0.287 | 0.227 | 0.235 | 0.266 |
| NCI-H596 | 0.805 |  | 0.788 | 0.939 | 0.868 | 1.03 | 1.03 | 1.07 | 1.12 | 1.23 | 1.06 | 1.39 | 1.07 | 1.01 | 0.98 | 0.802 | 0.698 | 0.661 | 0.56 | 0.815 |
| NCI-H647 | 1.21 | 1.13 | 1.32 | 1.27 | 1.02 | 0.438 | 0.399 | 0.332 | 0.4 | 0.399 | 0.383 | 0.534 | 0.441 | 0.433 | 0.391 | 0.647 | 0.751 | 0.57 | 0.841 | 0.639 |
| NCI-H650 | 1.03 | 0.984 | 0.908 | 1.15 | 0.939 | 0.313 | 0.304 | 0.32 | 0.289 | 0.376 | 0.315 | 0.372 | 0.45 | 0.338 | 0.304 | 0.514 | 0.593 | 0.477 | 0.529 | 0.527 |
| NCI-H661 | 1.05 | 0.895 | 0.885 | 1.06 | 0.988 | 0.564 | 0.598 | 0.589 | 0.561 | 0.612 | 0.6 | 0.608 | 0.563 | 0.632 | 0.69 | 0.691 | 0.71 | 0.731 | 0.8 | 0.672 |
| NCI-H727 | 0.774 | 0.79 | 0.774 | 0.855 | 0.908 | 0.854 | 0.765 | 0.97 |  | 1.13 | 0.595 | 0.976 | 0.881 | 0.865 | 0.907 | 0.57 | 0.604 | 0.744 | 0.545 | 0.888 |
| NCI-H838 | 1.07 | 1 | 0.995 | 1.11 | 1.07 | 0.474 | 0.478 | 0.46 | 0.472 | 0.527 | 0.485 | 0.479 | 0.435 | 0.469 | 0.438 | 0.427 | 0.433 | 0.397 | 0.417 | 0.371 |
| NCI-H1355 | 0.951 | 0.989 | 0.9 | 1.02 | 0.923 | 0.312 | 0.368 | 0.301 | 0.346 | 0.358 | 0.401 | 0.372 | 0.33 | 0.363 | 0.367 | 0.395 | 0.389 | 0.411 | 0.41 | 0.441 |
| NCI-H1395 | 0.98 | 0.957 | 0.824 | 1.06 | 1 | 0.764 | 0.752 | 0.712 | 0.687 | 0.68 | 0.786 | 0.741 | 0.682 | 0.713 | 0.654 | 0.633 | 0.866 | 0.717 | 0.731 | 0.651 |
| NCI-H1437 | 1.28 | 1.24 | 1.16 | 1.3 | 1.31 | 0.578 | 0.495 | 0.611 | 0.559 | 0.491 | 0.64 | 0.567 | 0.58 | 0.576 | 0.558 | 0.913 | 0.913 | 0.891 | 0.949 | 0.855 |
| NCI-H1650 | 1.12 | 1.04 | 1.21 | 1.15 | 1.49 | 0.42 | 0.473 | 0.381 | 0.338 | 0.366 | 0.386 | 0.401 | 0.365 | 0.514 | 0.548 | 0.546 | 0.756 | 0.546 | 0.631 | 0.676 |
